Measured values published in patent US20120003262A1, “ANTICANCER HEALTH FOOD CONTAINING PHELLINUS LINTEUS AND VEGETABLE WORMS” (HAN KOOK SHIN YAK CO., LTD., priority 2008, published 2012).

Test system: lung cancer cell (Lewis Lung Carcinoma: LLC)
Test: Anticancer animal test: Lewis Lung Carcinoma transplanted to mice, tumor volume and weight after 14 days of administration
Format: in vivo, mouse
Details: LLC-transplanted BDF1 male mice, extracts 200 mg/kg orally daily, Taxol 50 mg/kg intraperitoneally daily, for 14 days
Method: In order to test an anticancer effect of the mixture extract of Phellinus linteus and vegetable worms, from Examples 1 to 7, and Comparative 1, an animal test was carried out. A mouse used for the experiment was bought from Jung Ang Lab. Animal Inc. (black, Japan, BDF1 male, weight: 20±2 g). The breeding temperature was 22±2° C., and solid feed stuff (Samyang feed Co.) and water were sufficiently supplied. […]
A solvent for the extraction was an extra pure reagent (E.P.). For the test sample, a sterilized saline solution manufactured by Daihan Pharm Co. Ltd. was used. For the culture of a cancer cell, an RPMI 1640 medium (WelGENE Inc.) was used, and Trypsin-EDTA was manufactured by GIBCO. Besides, a test tube required for cell culture, a culture flask, and a filter for obtaining a cancer cell were manufactured by Falcon. Devices used for cancer transplantation were disinfected at 120° C. for 30 min, and a cancer volume was measured by a Digital Caliper.
A lung cancer cell (Lewis Lung Carcinoma: LLC) used for the experiment was distributed from the Korea Research Institute of Bioscience and Biotechnology. The lung cancer cell (Lewis Lung Carcinoma: LLC) was cultured by RPMI 1640 medium added with 10% FBS in a 37° C. incubator, and for the detachment from an attachment surface, Trypsin-EDTA was used. When the cells are filled up in a 200 ml culture flask, they were transplanted to two animals. After the cells were grown in vivo, they were used for an animal test.
In an anticancer animal test, a tumor grown up to a size of about 15×15×15 mm^3 was separated, and a cancer cell was separated from other cells by using a filer (Falcon). […] From the day after the cancer transplantation, for 14 days, powder obtained by mixing Phellinus linteus and vegetable worms at a weight ratio of 1:1 (Example 1), 1:3(Example 2), 3:1(Example 3), 1:5(Example 4), 5:1(Example 5), 1:10(Example 6), 10:1(Example 7) was orally administered daily to a black mouse (Japan) in an amount of 200 mg/kg. Meanwhile, as a positive control group, Taxol was intraperitoneally injected daily in an amount of 50 mg/kg once a day for 14 days. After 14 days, the administration of the extract powder of Phellinus linteus and vegetable worms was stopped, and a Digital Caliper was used to measure the results. […] After the measurement of a tumor volume, a tumor lump was obtained through an operation and its weight was measured. An inhibition ratio of tumor weight (IRTW) was calculated by (TW of control−TW of test)×100/TW of control.
All data were indicated by mean±S.D., and the analysis was carried out by Anova test. Also, when p values are 0.05 or less, they were determined to have significance.

Q: What does the source list for `CC(=O)O[C@H]1C(=O)[C@@]2(C)[C@H]([C@H](OC(=O)c3ccccc3)[C@]3(O)C[C@H](OC(=O)[C@H](O)[C@@H](NC(=O)c4ccccc4)c4ccccc4)C(C)=C1C3(C)C)[C@]1(OC(C)=O)CO[C@@H]1C[C@@H]2O` [Taxol]?
A: Tumor volume inhibiting ratio ((TV of control−TV of test)×100/TV of control): 67%; Tumor weight inhibiting ratio ((TW of control−TW of test)×100/TW of control): 64%; Tumor size (mean±S.D., 5 mice): 649 ± 182 mm^3; Tumor weight (mean±S.D., 5 mice): 0.61 ± 0.3 g
